In patent publication US11427549B2, “Pyrimidinyloxy benzo-fused compounds as herbicides” (FMC Corporation, priority 2017, dated 2022):

Tests used:
[1] = system: barnyardgrass (Echinochloa crus-galli); assay: Test A preemergence, barnyardgrass; format: in vivo; conditions: Echinochloa crus-galli, pre-emergence, 240 h, 0 to 100 scale (0 no effect, 100 complete control), read-out: Plant response rating, Barnyardgrass; for pest or weed control at 125 g/ha: 125 g ai/ha
kochia (Kochia scoparia) [2] = assay: Test A preemergence, kochia; format: in vivo; conditions: Bassia scoparia, pre-emergence, 240 h, 0 to 100 scale (0 no effect, 100 complete control), read-out: Plant response rating, Kochia; for pest or weed control at 125 g/ha: 125 g ai/ha
[3] = system: ryegrass, Italian (Italian ryegrass, Lolium multiflorum); assay: Test A preemergence, ryegrass, Italian; format: in vivo; conditions: Lolium multiflorum, pre-emergence, 240 h, 0 to 100 scale (0 no effect, 100 complete control), read-out: Plant response rating, Ryegrass, Italian; for pest or weed control at 125 g/ha: 125 g ai/ha
[4] = system: foxtail, giant (giant foxtail, Setaria faberii); assay: Test A preemergence, foxtail, giant; format: in vivo; conditions: Setaria faberi, pre-emergence, 240 h, 0 to 100 scale (0 no effect, 100 complete control), read-out: Plant response rating, Foxtail, Giant
Source text: Seeds of plant species selected from barnyardgrass (Echinochloa crus-galli), kochia (Kochia scoparia), ragweed (common ragweed, Ambrosia elatior), ryegrass, Italian (Italian ryegrass, Lolium multiflorum), foxtail, giant (giant foxtail, Setaria faberii), foxtail, green (green foxtail, Setaria viridis) and pigweed (Amaranthus retroflexus) were planted into a blend of loam soil and sand and treated preemergence with a directed soil spray using test chemicals formulated in a non-phytotoxic solvent mixture which included a surfactant.
At the same time, plants selected from these weed species and also wheat (Triticum aestivum), corn (Zea mays), blackgrass (Alopecurus myosuroides), and galium (catchweed bedstraw, Galium aparine) were planted in pots containing the same blend of loam soil and sand and treated with postemergence applications of test chemicals formulated in the same manner. Plants ranged in height from 2 to 10 cm and were in the one- to two-leaf stage for the postemergence treatment. Treated plants and untreated controls were maintained in a greenhouse for approximately 10 days, after which time all treated plants were compared to untreated controls and visually evaluated for injury. […] A dash (-) response means no test result.

[5] = system: pigweed (Amaranthus retroflexus); assay: Test A preemergence, pigweed; format: in vivo; conditions: Amaranthus retroflexus, pre-emergence, 240 h, 0 to 100 scale (0 no effect, 100 complete control), read-out: Plant response rating, Pigweed; for pest or weed control at 125 g/ha: 125 g ai/ha
[6] = system: barnyardgrass (Echinochloa crus-galli); assay: Test A postemergence, barnyardgrass; format: in vivo; conditions: Echinochloa crus-galli, post-emergence, 240 h, 0 to 100 scale (0 no effect, 100 complete control), read-out: Plant response rating, Barnyardgrass; for pest or weed control at 125 g/ha: 125 g ai/ha
kochia (Kochia scoparia) [7] = assay: Test A postemergence, kochia; format: in vivo; conditions: Bassia scoparia, post-emergence, 240 h, 0 to 100 scale (0 no effect, 100 complete control), read-out: Plant response rating, Kochia; for pest or weed control at 125 g/ha: 125 g ai/ha
[8] = system: ragweed (common ragweed, Ambrosia elatior); assay: Test A postemergence, ragweed; format: in vivo; conditions: Ambrosia artemisiifolia, post-emergence, 240 h, 0 to 100 scale (0 no effect, 100 complete control), read-out: Plant response rating, Ragweed; for pest or weed control at 125 g/ha: 125 g ai/ha
[9] = system: ryegrass, Italian (Italian ryegrass, Lolium multiflorum); assay: Test A postemergence, ryegrass, Italian; format: in vivo; conditions: Lolium multiflorum, post-emergence, 240 h, 0 to 100 scale (0 no effect, 100 complete control), read-out: Plant response rating, Ryegrass, Italian; for pest or weed control at 125 g/ha: 125 g ai/ha
[10] = system: pigweed (Amaranthus retroflexus); assay: Test A postemergence, pigweed; format: in vivo; conditions: Amaranthus retroflexus, post-emergence, 240 h, 0 to 100 scale (0 no effect, 100 complete control), read-out: Plant response rating, Pigweed; for pest or weed control at 125 g/ha: 125 g ai/ha
[11] = system: wheat (Triticum aestivum); assay: Test A postemergence, wheat; format: in vivo; conditions: Triticum aestivum, post-emergence, 240 h, 0 to 100 scale (0 no effect, 100 complete control), read-out: Plant response rating, Wheat; for plant injury at 125 g/ha: 125 g ai/ha
corn (Zea mays) = assay: Test A postemergence, corn; format: in vivo; conditions: Zea mays, post-emergence, 240 h, 0 to 100 scale (0 no effect, 100 complete control); for Corn plant response rating (crop injury, 0 = no effect, 100 = complete kill) at 125 g/ha: 125 g ai/ha
[12] = system: blackgrass (Alopecurus myosuroides); assay: Test A postemergence, blackgrass; format: in vivo; conditions: Alopecurus myosuroides, post-emergence, 240 h, 0 to 100 scale (0 no effect, 100 complete control), read-out: Plant response rating, Blackgrass; for pest or weed control at 125 g/ha: 125 g ai/ha
[13] = system: galium (catchweed bedstraw, Galium aparine); assay: Test A postemergence, galium; format: in vivo; conditions: Galium, post-emergence, 240 h, 0 to 100 scale (0 no effect, 100 complete control), read-out: Plant response rating, Galium; for pest or weed control at 125 g/ha: 125 g ai/ha
rice (Oryza sativa) = assay: Test B flooded paddy test, rice; conditions: Oryza sativa, read-out: Plant response rating, Rice (0 to 100 scale, 0 is no effect, 100 is complete control)
[14] = system: ducksalad (Heteranthera limosa); assay: Test B flooded paddy test, ducksalad; conditions: Heteranthera limosa, read-out: Plant response rating, Ducksalad (0 to 100 scale, 0 is no effect, 100 is complete control)
[15] = system: barnyardgrass (Echinochloa crus-galli); assay: Test B flooded paddy test, barnyardgrass; conditions: Echinochloa crus-galli, read-out: Plant response rating, Barnyardgrass (0 to 100 scale, 0 is no effect, 100 is complete control)
[16] = system: ragweed (common ragweed, Ambrosia elatior); assay: Test A preemergence, ragweed; format: in vivo; conditions: Ambrosia artemisiifolia, pre-emergence, 240 h, 0 to 100 scale (0 no effect, 100 complete control), read-out: Plant response rating, Ragweed

FC(F)(F)CCCC1COc2cccc(Oc3ncc(Cl)cn3)c21 (centres unmarked) [Compound 33, 5-Chloro-2-[[2,3-dihydro-3-(4,4,4-trifluorobutyl)-4-benzofuranyl]oxy]pyrimidine]
pest or weed control at 31 g/ha ([1]; 31 g ai/ha): 0%
pest or weed control at 125 g/ha [1]: 50%
pest or weed control at 31 g/ha (kochia (Kochia scoparia) [2]; 31 g ai/ha): 0%
pest or weed control at 125 g/ha (kochia (Kochia scoparia) [2]): 0%
pest or weed control at 31 g/ha ([3]; 31 g ai/ha): 0%
pest or weed control at 125 g/ha [3]: 50%
pest or weed control at 31 g/ha ([4]; 31 g ai/ha): 10%
pest or weed control at 125 g/ha ([4]; 125 g ai/ha): 100%
pest or weed control at 31 g/ha ([5]; 31 g ai/ha): 0%
pest or weed control at 125 g/ha [5]: 10%
pest or weed control at 31 g/ha ([6]; 31 g ai/ha): 10%
pest or weed control at 125 g/ha [6]: 20%
pest or weed control at 31 g/ha (kochia (Kochia scoparia) [7]; 31 g ai/ha): 30%
pest or weed control at 125 g/ha (kochia (Kochia scoparia) [7]): 40%
pest or weed control at 31 g/ha ([8]; 31 g ai/ha): 0%
pest or weed control at 125 g/ha [8]: 10%
pest or weed control at 31 g/ha ([9]; 31 g ai/ha): 0%
pest or weed control at 125 g/ha [9]: 0%
pest or weed control at 31 g/ha ([10]; 31 g ai/ha): 20%
pest or weed control at 125 g/ha [10]: 30%
plant injury at 31 g/ha ([11]; 31 g ai/ha): 0%
plant injury at 125 g/ha [11]: 0%
Corn plant response rating (crop injury, 0 = no effect, 100 = complete kill) at 31 g/ha (corn (Zea mays); 31 g ai/ha): 0%
Corn plant response rating (crop injury, 0 = no effect, 100 = complete kill) at 125 g/ha (corn (Zea mays)): 0%
pest or weed control at 31 g/ha ([12]; 31 g ai/ha): 0%
pest or weed control at 125 g/ha [12]: 20%
pest or weed control at 31 g/ha ([13]; 31 g ai/ha): 50%
pest or weed control at 125 g/ha [13]: 70%
plant injury at 250 g/ha (rice (Oryza sativa)): 0%
pest or weed control at 250 g/ha [14]: 70%
pest or weed control at 250 g/ha [15]: 0%

O=C1OC(CCCC(F)(F)F)c2c(Oc3ncc(Cl)cn3)cccc21 (centres unmarked) [Compound 1, 4-[(5-Chloro-2-pyrimidinyl)oxy]-3-(4,4,4-trifluorobutyl)-1(3H)-isobenzofuranone]
pest or weed control at 125 g/ha [1]: 100%
pest or weed control at 500 g/ha ([1]; 500 g ai/ha): 100%
pest or weed control at 125 g/ha (kochia (Kochia scoparia) [2]): 100%
pest or weed control at 500 g/ha (kochia (Kochia scoparia) [2]; 500 g ai/ha): 100%
pest or weed control at 125 g/ha ([16]; 125 g ai/ha): 80%
pest or weed control at 500 g/ha ([16]; 500 g ai/ha): 90%
pest or weed control at 125 g/ha [3]: 80%
pest or weed control at 500 g/ha ([3]; 500 g ai/ha): 100%
pest or weed control at 125 g/ha [5]: 100%
pest or weed control at 500 g/ha ([5]; 500 g ai/ha): 100%
pest or weed control at 125 g/ha [6]: 70%
pest or weed control at 500 g/ha ([6]; 500 g ai/ha): 80%
pest or weed control at 125 g/ha (kochia (Kochia scoparia) [7]): 100%
pest or weed control at 500 g/ha (kochia (Kochia scoparia) [7]; 500 g ai/ha): 100%
pest or weed control at 125 g/ha [8]: 10%
pest or weed control at 500 g/ha ([8]; 500 g ai/ha): 40%
pest or weed control at 125 g/ha [9]: 50%
pest or weed control at 500 g/ha ([9]; 500 g ai/ha): 80%
pest or weed control at 125 g/ha [10]: 100%
pest or weed control at 500 g/ha ([10]; 500 g ai/ha): 100%
plant injury at 125 g/ha [11]: 30%
plant injury at 500 g/ha ([11]; 500 g ai/ha): 80%
Corn plant response rating (crop injury, 0 = no effect, 100 = complete kill) at 125 g/ha (corn (Zea mays)): 40%
Corn plant response rating (crop injury, 0 = no effect, 100 = complete kill) at 500 g/ha (corn (Zea mays); 500 g ai/ha): 60%
pest or weed control at 125 g/ha [12]: 40%
pest or weed control at 500 g/ha ([12]; 500 g ai/ha): 100%
pest or weed control at 125 g/ha [13]: 100%
pest or weed control at 500 g/ha ([13]; 500 g ai/ha): 100%
plant injury at 250 g/ha (rice (Oryza sativa)): 0%
pest or weed control at 250 g/ha [14]: 20%
pest or weed control at 250 g/ha [15]: 0%
